This passage reports RP-LC retention time results from the METLIN SMRT retention time set (Domingo-Almenara et al. 2019).

The nature of this series: gradient 5% acetonitrile 3 min, to 50% in 2 min, to 85% in 15 min, held 3 min, 100 µL/min. Conditions: column: Zorbax Extend-C18 2.1 x 50 mm; eluents: water / acetonitrile, 0.1% formic acid. The method, boiled down: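 Over 3 months, pure standards in mixtures of ~100 molecules were run by HPLC coupled to a quadrupole time-of-flight mass spectrometer in positive and negative ionization mode. The column was a Zorbax Extend-C18 (2.1 × 50 mm, 1.8 μm) at 100 μL/min, eluted with water and acetonitrile each holding 0.1% formic acid, with 40 μL dead and 900 μL dwell volumes. Retention time was determined from adduct peaks chosen by software and checked manually.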
Molecule `COc1ccc(-c2cc3c(=O)n(Cc4noc(CN5CCCCC5C)n4)ccn3n2)cc1` (stereo not given) came in with an RP-LC retention time of 674 s.
Regarding `O=C(C1=NN(Cc2ccc(F)cc2)c2cc(Cl)ccc2S1(=O)=O)N1CCOCC1`, the RP-LC retention time is 899 s.
The figure for `COC(=O)c1cccc(NC(=O)NC2CCCN2S(=O)(=O)c2ccc(Cl)cc2)c1` (stereo not given) is 821 s; for `COC(=O)c1c(C)c(C(=O)C(C)N(Cc2ccc(F)cc2)C(=O)C2CC2)c(C)n1C` (stereo not given) it is 917 s; for `Cn1nc(N2CCCC(NC(=O)c3cc4cc(Cl)ccc4[nH]3)C2)ccc1=O` (stereo not given) it is 827 s.
`COc1ccc(CCC(=O)N2CCN(c3cc(C)c4ccccc4n3)CC2)cc1OC` had an RP-LC retention time of 645 s.
Under `CCOc1ccc(-n2c(N3CCCC3)nc3cc(C(=O)OC)ccc3c2=O)cc1` stands 963 s; under `COc1ccc(NC(=O)CSc2cc(N3CCN(c4ccc(OC)cc4)CC3)ncn2)cc1`, 859 s; under `COCCCNc1c(-c2ccc(C)cc2)nc2sc(C(N)=O)c(C)n12`, 705 s.
In turn, `COc1ccc(NC(=O)C2(C)CCCCC(=O)N2)cc1` (stereo not given) showed an RP-LC retention time of 640 s.
On to `O=C1CC(c2ccc(C(=O)O)cc2)c2scc(-c3cccc(F)c3)c2N1` (stereo not given), for which the RP-LC retention time was determined as 823 s.
The figure for `CCNC(=O)N1CC(c2nc(-c3cccnc3)no2)C2(CCOCC2)C1` (stereo not given) is 597 s.
Take `Cn1c(=O)n(C)c2cc(CNc3ccc(Cl)cc3)ccc21`: the RP-LC retention time came to 892 s.
The figure for `O=C(C1=NN(Cc2ccccc2)c2ccc(Cl)cc2S1(=O)=O)N1CCOCC1` is 824 s.
Take `CCOC(=O)c1c(C)[nH]c(C(=O)N2CCC(CC(=O)N3CCN(c4ccccc4)CC3)CC2)c1C`: the RP-LC retention time came to 836 s.
As for `COc1ccc(NC(=O)CSc2nccnc2Oc2ccc(C)cc2)cc1OC`, the RP-LC retention time was 955 s.
Under `CCOC(=O)/C=C/c1ccc(O)c(OC)c1` stands 749 s; under `COc1cccc(NC(=O)c2cc(C(C)C)n3nccc3n2)c1`, 1070 s.
Under `Cn1nc(C(=O)N2CCC(Oc3ccc(-c4noc(C5CC5)n4)cc3)C2)c2ccccc21` (stereo not given) stands 1050 s; under `Cc1cc(C)cc(-n2ccn(Cc3nc(-c4ccc(Cl)c(F)c4)no3)c(=O)c2=O)c1`, 976 s; under `COc1ccc(-n2c(N(C)C)nc3cc(C(=O)NC4CC4)sc32)cc1`, 653 s.
In turn, `O=C(Cc1nnc(-c2ccc3ncccc3c2)o1)Nc1cc(F)cc(F)c1` returned an RP-LC retention time of 784 s.
Under `O=C(NCc1cccnc1-c1ccc(F)cc1)c1cccs1` stands 894 s; under `Brc1ccc([C@H]2CN3CCSC3=N2)cc1`, 645 s; under `COCc1nc2cccnc2n1C1CCN(C(=O)Nc2cc(OC)ccc2OC)CC1`, 696 s.
For the molecule `Cc1noc(/C=C\c2ccc(S(=O)(=O)N3CCN(c4ncccn4)CC3)cc2)c1NC(=O)C1CC1`, the RP-LC retention time was 849 s.
Under `CC(C)c1ccc(NC(=O)C2CCN(C(=O)C(C)(C)C)CC2)cc1` stands 907 s.
`COc1ccc(CCNS(=O)(=O)c2c(N)n(C)c(=O)n(C)c2=O)cc1OC` showed an RP-LC retention time of 605 s.
`CCOc1ccc(-c2[nH]ncc2CNS(=O)(=O)Cc2ccc(C)c(C)c2)cc1` returned an RP-LC retention time of 896 s.
The figure for `Cc1c(-c2noc(-c3ccc4c(c3)OCO4)n2)nnn1Cc1cccc(F)c1` is 990 s; for `COC(=O)c1ccccc1NC(=O)c1ccc(F)cc1` it is 1060 s; for `CCn1c(C(=O)NCCCN2CCOCC2)c(N2CCCC2=O)c2cc(F)ccc21` it is 624 s.
The figure for `O=C(CCn1c(=O)c2cccn2c2cccnc21)N1CCN(c2ccccn2)CC1` is 584 s; for `CS(=O)(=O)N1CCC(C(=O)NC2CCCCCCC2)Oc2ccc(Cl)cc21` (stereo not given) it is 1070 s; for `Cc1ccc(NC(=O)N2CCCC(Cn3c(C4CC4)nc4cccnc43)C2)cc1F` (stereo not given) it is 717 s.
Consider `COc1cccc(NC(=O)CN2C(=O)CC(c3cccs3)=Nc3ccccc32)c1`, for which the RP-LC retention time was found to be 898 s.
Regarding `CCOC(=O)[C@H](C)C[C@@H](Cc1ccc(-c2ccccc2)cc1)NC(=O)CCC(=O)O`, the RP-LC retention time came out at 1010 s.
Under `CCNC(=O)c1ccc(-n2cccc2)nc1` stands 708 s; under `O=C(NCc1ccccc1Cl)C1CCCN(S(=O)(=O)c2c[nH]c(C(=O)N3CCCC3)c2)C1` (stereo not given), 790 s.
The molecule `COc1ccc(Nc2nc(N)c3ccccc3n2)cc1` gave an RP-LC retention time of 610 s.
The figure for `CCOc1cccc(Cn2c(=O)c3sccc3n(Cc3nc(-c4ccc(C)cc4)no3)c2=O)c1` is 1120 s; for `Cc1ccc(S(=O)(=O)NC2CCS(=O)(=O)C2)cc1[N+](=O)[O-]` (stereo not given) it is 678 s; for `CC(C)c1ccccc1NC(=O)CN1C(=O)NC2(CCCCC2)C1=O` it is 807 s.
`COc1ccc(Cl)cc1NC(=O)C1CCN(S(C)(=O)=O)c2cc(C)ccc2O1` (stereo not given) gave an RP-LC retention time of 1110 s.
The figure for `Cc1nnc2ccc(S(=O)(=O)N(Cc3ccccc3)c3ccc(Cl)cc3)cn12` is 930 s.
The figure for `CC(C)n1nnc2cc(S(=O)(=O)N3CCCC(C(=O)N(C)Cc4ccccc4)C3)ccc21` (stereo not given) is 940 s.
The figure for `CC(C)n1c(=O)sc2cc(S(=O)(=O)N3CCC(C(=O)N(C)C4CCCCC4)CC3)ccc21` is 716 s; for `COCC1(O)CCOC2(CCN(Cc3cccc(Cl)c3)CC2)C1` (stereo not given) it is 612 s; for `CC1CCC(NC(=O)c2nnc(-c3ccc(S(=O)(=O)N4CCOCC4)cc3)o2)CC1` (stereo not given) it is 917 s.
Consider `COC[C@@H]1CN(c2ncccn2)C[C@H]1C(=O)N(C)Cc1ccco1`, for which the RP-LC retention time worked out at 619 s.
Under `CCN(CC)C(=O)c1ccc(-c2nc3cc(NS(=O)(=O)c4ccc(F)cc4)ccc3n2C)cc1` stands 699 s; under `COc1cccc(-n2c(=O)c3sccc3n(Cc3nc(-c4ccccc4OC)no3)c2=O)c1`, 861 s.
The figure for `CCC(C)NS(=O)(=O)c1cc(-c2cc(C(F)(F)F)on2)sc1C` (stereo not given) is 1140 s; for `Cc1nnsc1C(=O)N1CCC(CNC(=O)c2ccccc2C(F)(F)F)CC1` it is 674 s; for `CN(CCc1noc(COc2ccc(Cl)cc2)n1)C(=O)c1ccco1` it is 856 s.
`CNC(=O)[C@@H]1CCCN1C(=O)c1ccccc1` had an RP-LC retention time of 587 s.
As to `O=c1cc(N2CCOCC2)oc2c(-c3cccc4c3sc3ccccc34)cccc12`, the RP-LC retention time was 1190 s.
For `N#CCSC1=NS(=O)(=O)c2cc(F)ccc2N1`, the RP-LC retention time came to 622 s.
The figure for `CC(=O)Nc1ccc(OCC(=O)N(C)Cc2ccccc2)nc1` is 544 s; for `CCCCN1C(=O)C(C)(C(=O)Nc2cc(Cl)ccc2OC)Oc2cccnc21` (stereo not given) it is 1230 s; for `CCc1nc2cc(-c3noc(-c4ccc(CS(=O)(=O)c5ccccc5)cc4)n3)ccc2o1` it is 1140 s.
Molecule `Cc1noc2ncnc(N3CCCC(C(=O)N4CCC(Cc5ccccc5)CC4)C3)c12` (stereo not given) had an RP-LC retention time of 986 s.
Regarding `COCc1nnc(-c2cc(C)cc(C)c2)o1`, the RP-LC retention time is 857 s.
Under `CCc1ccc(-n2nnc3c(=O)n(Cc4nc(-c5ccccc5Cl)no4)cnc32)cc1` stands 1120 s.
Under `Cc1nn(C(C)C(=O)NC2CCC(C)CC2)c(=O)c2nn(-c3ccccc3)c(C)c12` (stereo not given) stands 962 s.
`COc1ccc(-c2nc3n(c2C(=O)Nc2nc(-c4ccccc4)cs2)CCS3(=O)=O)cc1` yielded an RP-LC retention time of 1010 s.
`CCOC(=O)c1nc(NC2CCCCCC2)c2ccccc2n1`: the RP-LC retention time was 827 s.
The figure for `CCOCC1CCC2(CCN(S(=O)(=O)c3ccc(C)c(F)c3)CC2)O1` (stereo not given) is 1090 s; for `CCCn1cc(S(=O)(=O)Nc2cc(F)ccc2Cl)c2cccnc21` it is 950 s.
The figure for `O=C(c1c(F)cccc1Cl)N1CCN(c2ccc3nnc(-c4ccco4)n3n2)CC1` is 680 s.
For the molecule `CC(=O)N1CCc2sc(C(=O)N3CCN(c4ccccc4)CC3)cc2C1`, the RP-LC retention time is 732 s.
The figure for `CC[C@H](C)[C@H](NC(=O)N1C[C@@H]2C[C@@H](C1)c1cccc(=O)n1C2)C(=O)O` is 598 s.
In turn, `NC(=O)Nc1cc(-c2cccc(F)c2)sc1C(=O)N[C@H]1CCCNC1` gave an RP-LC retention time of 650 s.
For the molecule `NC(=O)CS(=O)C(c1ccccc1)c1ccccc1` (stereo not given), the RP-LC retention time stood at 710 s.
In turn, `CCC(=O)NCC12CCC=C1N(C)C(=O)CC2` (stereo not given) had an RP-LC retention time of 616 s.
The figure for `CCCn1cc(C(=O)NCCN(C)C)c(S(=O)(=O)N2CCN(c3cccc(Cl)c3)CC2)n1` is 745 s.
The figure for `COc1ccc(Cc2nc(-c3ccc4c(c3)ncn4CCN3CCCCC3)no2)cc1` is 626 s; for `Cc1cccc(-c2noc(CSc3nccn3-c3ccccc3)n2)c1` it is 969 s; for `CC1CN(C2CCCCC2)c2nc3c(c(=O)n(CCN4CCOCC4)c(=O)n3C)n2C1` (stereo not given) it is 662 s.
Under `COCCCNC(=O)c1ccc2c(c1)CCCN2S(C)(=O)=O` stands 667 s.
